Reference: DBAASP
In brackets after ≈: the same amount, converted by molar mass.

Experiments:
Assay in all cases: ≥ marks a high value that may be exact or a test limit, other limits are often not marked, values filed in µg/mL are converted to µM
[1] = tested on: Bacillus subtilis ATCC 6633
[2] = tested on: Escherichia coli ATCC 25922
[3] = tested on: Klebsiella pneumoniae ATCC 10031
[4] = tested on: Micrococcus luteus ATCC 10240
[5] = tested on: Pseudomonas aeruginosa ATCC 27853
[6] = tested on: Salmonella enterica subsp. enterica serovar Typhimurium ATCC 14028
[7] = tested on: Shigella dysenteriae ATCC 9752
[8] = tested on: Staphylococcus aureus ATCC 6538P
[9] = tested on: Staphylococcus epidermidis ATCC 12228
[10] = tested on: Escherichia coli W160-37
[11] = tested on: Aspergillus fumigatus
[12] = tested on: Candida albicans
[13] = tested on: Staphylococcus aureus
[14] = tested on: Escherichia coli K-12
[15] = tested on: Klebsiella pneumoniae
[16] = tested on: Pseudomonas aeruginosa PAO1
[17] = tested on: Staphylococcus aureus NCTC 8325-4
[18] = tested on: Escherichia coli JM109
[19] = tested on: Acinetobacter baumannii CICC 22934
[20] = tested on: Bacillus cereus AS1.126
[21] = tested on: Enterobacter cloacae CGMCC 1.58
[22] = tested on: Enterococcus faecalis CGMCC 1.595
[23] = tested on: Enterococcus faecium CGMCC 1.2334
[24] = tested on: Escherichia coli AS1.349
[25] = tested on: Klebsiella aerogenes CGMCC 1.876
[26] = tested on: Klebsiella pneumoniae subsp. pneumoniae CGMCC 1.176
[27] = tested on: Lactococcus lactis AS1.1690
[28] = tested on: Proteus mirabilis CICC 22931
[29] = tested on: Pseudomonas aeruginosa CGMCC 1.860
[30] = tested on: Staphylococcus aureus AS1.72

With CC(C)C[C@H](NC(=O)[C@H](Cc1c[nH]c2ccccc12)NC(=O)CNC(=O)[C@H](CC(C)C)NC(=O)[C@@H](N)Cc1ccccc1)C(=O)N[C@@H](Cc1ccccc1)C(=O)N[C@@H](CCCCN)C(=O)N[C@@H](Cc1c[nH]c2ccccc12)C(=O)N[C@@H](C)C(=O)N[C@@H](CCCCN)C(=O)N[C@@H](CCCCN)C(N)=O [FLGWLFKWAKK] the MIC [1] was 4.42 µM (≈ 6.3 µg/mL), the MIC [2] was 8.78 µM (≈ 12.5 µg/mL) and the MIC [3] was 8.78 µM (≈ 12.5 µg/mL). It also gave an MIC [4] of 2.18 µM (≈ 3.1 µg/mL), an MIC [5] of 17.6 µM (≈ 25 µg/mL) and an MIC [6] of 35.1 µM (≈ 50 µg/mL). For the same compound, the MIC [7] was 17.6 µM (≈ 25 µg/mL), the MIC [8] was 8.78 µM (≈ 12.5 µg/mL) and the MIC [9] was 4.42 µM (≈ 6.3 µg/mL).

Work on CC[C@H](C)[C@H](NC(=O)[C@H](CCCCN)NC(=O)[C@H](CCCN=C(N)N)NC(=O)[C@@H]1CCCN1C(=O)[C@@H](NC(=O)[C@H](CC(C)C)NC(=O)[C@H](CC(C)C)NC(=O)[C@H](CC(C)C)NC(=O)[C@@H](N)Cc1ccccc1)[C@@H](C)CC)C(=O)N[C@H](C(=O)N[C@H](C(=O)N[C@@H](C)C(=O)N[C@@H](CC(C)C)C(N)=O)[C@@H](C)O)C(C)C [FLLLIPRKIVTAL] yielded an MIC [10] of at least 93.5 µM.

With N[C@@H](Cc1ccccc1)C(=O)N1CCC[C@H]1C(=O)N[C@@H](Cc1c[nH]c2ccccc12)C(=O)N[C@@H](Cc1c[nH]c2ccccc12)C(=O)N[C@@H](Cc1c[nH]c2ccccc12)C(=O)N1CCC[C@H]1C(=O)N[C@@H](Cc1ccccc1)C(=O)O [FPWWWPF] the MIC [11] was at least 469 µM and the MIC [12] was over 939 µM.

For CC[C@H](C)[C@H](N)C(=O)N[C@H](C(=O)N[C@@H](CO)C(=O)N[C@H](C(=O)N[C@H](C(=O)NCC(=O)N[C@@H](CC(=O)O)C(=O)N[C@@H](CC(C)C)C(=O)N[C@H](C(=O)N[C@@H](CCCCN)C(=O)N[C@@H](Cc1c[nH]c2ccccc12)C(=O)N[C@H](C(=O)N[C@H](C(=O)N[C@@H](CCCCN)C(=O)N[C@H](C(=O)N[C@H](C(=O)O)C(C)C)[C@@H](C)O)[C@@H](C)CC)[C@@H](C)CC)C(C)C)[C@@H](C)CC)[C@@H](C)O)[C@@H](C)CC [IISTIGDLVKWIIKTV], the MIC [10] was at least 35 µM.

With CC[C@H](C)[C@H](N)C(=O)N[C@H](C(=O)N[C@@H](CO)C(=O)N[C@H](C(=O)N[C@H](C(=O)NCC(=O)N[C@@H](CCCCN)C(=O)N[C@@H](CC(C)C)C(=O)N[C@H](C(=O)N[C@@H](CCCCN)C(=O)N[C@@H](Cc1c[nH]c2ccccc12)C(=O)N[C@H](C(=O)N[C@H](C(=O)N[C@@H](CCCCN)C(=O)N[C@H](C(=O)N[C@H](C(=O)O)C(C)C)[C@@H](C)O)[C@@H](C)CC)[C@@H](C)CC)C(C)C)[C@@H](C)CC)[C@@H](C)O)[C@@H](C)CC [IISTIGKLVKWIIKTV] the MIC [10] was 3 µM (≈ 5.44 µg/mL) and the MIC [13] was 3.46 µM (≈ 6.28 µg/mL).

With CC[C@H](C)[C@H](N)C(=O)N[C@@H](CCCCN)C(=O)N[C@@H](CCCCN)C(=O)N[C@H](C(=O)N[C@H](C(=O)N[C@@H](CCCCN)C(=O)N[C@@H](CCCCN)C(=O)N[C@H](C(N)=O)[C@@H](C)CC)[C@@H](C)CC)[C@@H](C)CC [IKKIIKKI] the MIC [14] was at least 500 µM, the MIC [15] was over 500 µM and the MIC [16] was over 500 µM. For the same compound, the MIC [17] was at least 500 µM.

CC[C@H](C)[C@H](NC(=O)[C@H](C)NC(=O)[C@H](CC(C)C)NC(=O)[C@H](CS)NC(=O)[C@H](Cc1cnc[nH]1)NC(=O)[C@H](C)NC(=O)[C@H](C)NC(=O)[C@H](CS)NC(=O)[C@@H](N)CC(C)C)C(=O)N[C@@H](CC(C)C)C(=O)N[C@@H](CCCN=C(N)N)C(=O)N[C@@H](CCCN=C(N)N)C(N)=O [LCAAHCLAILRR] was tested, and the MIC [18] was 17.9 µM, the MIC [8] was 7.46 µM and the MIC [13] was 47.8 µM.

Work on CC[C@H](C)[C@H](NC(=O)[C@H](C)NC(=O)[C@H](CC(C)C)NC(=O)[C@H](CCCN=C(N)N)NC(=O)[C@H](Cc1cnc[nH]1)NC(=O)[C@H](C)NC(=O)[C@H](C)NC(=O)[C@H](CCCN=C(N)N)NC(=O)[C@@H](N)CC(C)C)C(=O)NCC(=O)N[C@@H](CCCN=C(N)N)C(=O)N[C@@H](CCCN=C(N)N)C(N)=O [LRAAHRLAIGRR] yielded an MIC [18] of 11.5 µM (≈ 16 µg/mL), an MIC [8] of 4.32 µM (≈ 6 µg/mL) and an MIC [13] of 46.1 µM (≈ 64 µg/mL).

In the case of CC(C)C[C@H](NC(=O)[C@H](CCCCN)NC(=O)[C@H](CCCN=C(N)N)NC(=O)[C@H](Cc1cnc[nH]1)NC(=O)[C@H](C)NC(=O)[C@H](CCCN=C(N)N)NC(=O)[C@H](Cc1cnc[nH]1)NC(=O)CNC(=O)[C@H](Cc1ccccc1)NC(=O)[C@H](CCCN=C(N)N)NC(=O)[C@H](CCCN=C(N)N)NC(=O)CNC(=O)[C@H](Cc1cnc[nH]1)NC(=O)[C@H](CCCN=C(N)N)NC(=O)CNC(=O)[C@@H](NC(=O)[C@H](CCCCN)NC(=O)[C@@H](N)CO)C(C)C)C(=O)O [SKVGRHGRRFGHRAHRKL], the MIC [19] is reported as at least 100 µM, the MIC [20] is reported as at least 100 µM and the MIC [21] is reported as at least 100 µM. For the same compound, the MIC [22] was at least 100 µM, the MIC [23] was at least 100 µM and the MIC [24] was at least 100 µM. For the same compound, the MIC [25] was at least 100 µM, the MIC [26] was at least 100 µM and the MIC [27] was at least 100 µM. The MIC [28] was at least 100 µM, the MIC [29] was at least 100 µM and the MIC [30] was at least 100 µM.

With CC(C)C[C@H](NC(=O)[C@H](CCCCN)NC(=O)[C@H](CCCN=C(N)N)NC(=O)[C@H](Cc1cnc[nH]1)NC(=O)[C@H](C)NC(=O)[C@H](CCCN=C(N)N)NC(=O)[C@H](Cc1cnc[nH]1)NC(=O)CNC(=O)[C@H](Cc1ccccc1)NC(=O)[C@H](CCCN=C(N)N)NC(=O)[C@H](CCCN=C(N)N)NC(=O)[C@H](CC(C)C)NC(=O)[C@H](Cc1cnc[nH]1)NC(=O)[C@H](CCCN=C(N)N)NC(=O)CNC(=O)[C@@H](NC(=O)[C@H](CCCCN)NC(=O)[C@@H](N)CO)C(C)C)C(=O)O [SKVGRHLRRFGHRAHRKL] the MIC [19] was at least 100 µM, the MIC [20] was 9.38 µM (≈ 20.7 µg/mL) and the MIC [21] was at least 100 µM. The MIC [22] was 18.8 µM (≈ 41.5 µg/mL), the MIC [23] was 18.8 µM (≈ 41.5 µg/mL) and the MIC [24] was at least 100 µM. It also gave an MIC [25] of at least 100 µM, an MIC [26] of at least 100 µM and an MIC [27] of 18.8 µM (≈ 41.5 µg/mL). For the same compound, the MIC [28] was at least 100 µM, the MIC [29] was at least 100 µM and the MIC [30] was 12.5 µM (≈ 27.6 µg/mL).

Work on CC(C)C[C@H](NC(=O)[C@H](CCCCN)NC(=O)[C@H](CCCN=C(N)N)NC(=O)[C@H](Cc1cnc[nH]1)NC(=O)[C@H](C)NC(=O)[C@H](CCCN=C(N)N)NC(=O)[C@H](Cc1cnc[nH]1)NC(=O)[C@H](CC(C)C)NC(=O)[C@H](Cc1ccccc1)NC(=O)[C@H](CCCN=C(N)N)NC(=O)[C@H](CCCN=C(N)N)NC(=O)[C@H](CC(C)C)NC(=O)[C@H](Cc1cnc[nH]1)NC(=O)[C@H](CCCN=C(N)N)NC(=O)CNC(=O)[C@@H](NC(=O)[C@H](CCCCN)NC(=O)[C@@H](N)CO)C(C)C)C(=O)O [SKVGRHLRRFLHRAHRKL] yielded an MIC [19] of at least 100 µM, an MIC [20] of 2.34 µM (≈ 5.31 µg/mL) and an MIC [21] of at least 100 µM. It also gave an MIC [22] of 4.69 µM (≈ 10.6 µg/mL), an MIC [23] of 3.13 µM (≈ 7.1 µg/mL) and an MIC [24] of at least 100 µM. It also gave an MIC [25] of at least 100 µM, an MIC [26] of at least 100 µM and an MIC [27] of 4.69 µM (≈ 10.6 µg/mL). It also gave an MIC [28] of at least 100 µM, an MIC [29] of at least 100 µM and an MIC [30] of 2.34 µM (≈ 5.31 µg/mL).
